In ChEMBL document CHEMBL1145668, “The Effect of Ultraviolet Light on the Toxicity of Natural Products Toward the Eggs of Drosophila melanogaster” (J Nat Prod, 1983) one finds LD50, Activity and selectivity ratio data, which are given here for three compounds.

A short description of data set [1]: Ovicidal activity against Drosophila melanogaster egg by paper disk method. The class given is ADME.
Data set [2] is described as follows: Increase in ovicidal activity against Drosophila melanogaster egg incubated in dark by paper disk method. The class given is ADME.
The nature of data set [3]: Photoovicidal activity against Drosophila melanogaster egg pretreated 1 hr before UV light irradiation for 45 mins by paper disk method. It counts as ADME. The following applies: 0.75 h.
The test system of the next data set is Saccharomyces cerevisiae. The data set is described as follows: Phototoxicity against Saccharomyces cerevisiae. The class given is functional, organism-based.
A further data set concerns Cyberlindnera jadinii. Description: Phototoxicity against Candida utilis. The class given is functional, organism-based.
The subject of a further data set is Aedes aegypti. Description: Phototoxicity against Aedes aegypti larvae. It counts as functional, organism-based.
For another data set, the system named is Drosophila melanogaster. Description: Phototoxicity against Drosophila melanogaster larvae. The class given is functional, organism-based.
The test system of the next data set is Escherichia coli. The data set is described as follows: Phototoxicity against Escherichia coli B. The class given is functional, organism-based.
A short description of data set [4]: Ratio of ID50 for Drosophila melanogaster egg to ID50 for Drosophila melanogaster egg irradiated with UV light for 45 mins. It counts as ADME.

SMILES strings stand for the structures. Active and inactive are the calls of the source. The calls are words filed in the database; no cut-off is given here.

In turn, `O=c1ccc2ccccc2o1` [COUMARIN] yielded an LD50 in data set [1] of 23 microg/cm2.

With `CC#Cc1ccc(-c2ccccc2)s1`, in data set [2], the Activity result was “Not Active”. In addition, the LD50 in data set [3] stood at 0.013 microg/cm2; in data set [1], 2.9 microg/cm2. For the same compound, the outcome with Saccharomyces cerevisiae, in the data set with Cyberlindnera jadinii, with Aedes aegypti, in the data set on Drosophila melanogaster and with Escherichia coli was Active. The selectivity ratio at 0.75 h in data set [4] is 225.

Turning to `C#Cc1ccc(-c2ccccc2)s1`, the Activity entry in data set [2] is reported as “Not Active”. In addition, the LD50 in data set [3] is recorded as 0.025 microg/cm2; in data set [1], 4.6 microg/cm2. The result in the data set with Saccharomyces cerevisiae, with Cyberlindnera jadinii, in the data set with Aedes aegypti, in the data set on Drosophila melanogaster and with Escherichia coli was Active. For the same compound, in data set [4], the selectivity ratio at 0.75 h came out at 200.
